Experimental data published in ChEMBL document CHEMBL5728324, “Inhibitors of Hepatitis C virus polymerase” (2021).

Assay: HCV Replicon Assay and EC50 Determination: HCV replicon assay is based on the luciferase reporter cell line (Huh-luc/neo-ET). This reporter cell line is a human liver carcinoma cell line (Huh-7) stably transfected with an autonomously replicating bicistronic HCV subgenomic RNA replicon (Lohmann et al., 1999, Science, 285, 110-113). Inhibition of HCV RNA replication was monitored through analysis of reporter luciferase activity. Briefly, HCV replicon cells were incubated with inhibitors for 72 hours at 37° C. After the incubation, duplicate plates were treated and incubated in parallel for assessment of cellular toxicity by XTT staining and anti-HCV activity by measurement of luciferase reporter activity. Either human interferon alpha 2B or ribavirin was used as a reference compound. EC50 values were determined using GraFit (Erithaus software) or Excel.

SMILES: CNC(=O)c1c(-c2ccc(F)cc2)oc2cc(N(CC(=O)NC3(C(=O)NCc4cccc(C(=O)/C=C(\O)C(=O)O)c4)CCCC3)S(C)(=O)=O)c(C3CC3)cc12
- EC50: 100 to 1000 nM

SMILES: CNC(=O)c1c(-c2ccc(F)cc2)oc2cc(N(CCCCCOCc3ccc(C(=O)O)cc3)S(C)(=O)=O)c(C3CC3)cc12
- EC50: < 100 nM

SMILES: CNC(=O)c1c(-c2ccc(F)cc2)oc2cc(N(CCOCCOCc3cccc(C(=O)/C=C(\O)C(=O)O)c3)S(C)(=O)=O)c(C3CC3)cc12
- EC50: < 100 nM

SMILES: CNC(=O)c1c(-c2ccc(F)cc2)oc2cc(N(CCCCOCCc3ccc(C(=O)O)cc3)S(C)(=O)=O)c(C3CC3)cc12
- EC50: < 100 nM

SMILES: CNC(=O)c1c(-c2ccc(F)cc2)oc2cc(N(CCOCCOCc3ccc(C(=O)O)cc3)S(C)(=O)=O)c(C3CC3)cc12
- EC50: 100 to 1000 nM

SMILES: CNC(=O)c1c(-c2ccc(F)cc2)oc2cc(N(CCCCCCCc3ccc(C(=O)O)cc3)S(C)(=O)=O)c(C3CC3)cc12
- EC50: < 100 nM

SMILES: CNC(=O)c1c(-c2ccc(F)cc2)oc2cc(N(CCOCCOCCOC(C(=O)O)c3ccccc3)S(C)(=O)=O)c(C3CC3)cc12 (centres undefined)
- EC50: 100 to 1000 nM

SMILES: CNC(=O)c1c(-c2ccc(F)cc2)oc2cc(N(CCOCCCc3cccc(C(=O)/C=C(\O)C(=O)O)c3)S(C)(=O)=O)c(C3CC3)cc12
- EC50: < 100 nM

SMILES: CNC(=O)c1c(-c2ccc(F)cc2)oc2cc(N(CCOCCCOCc3cccc(C(=O)/C=C(\O)C(=O)O)c3)S(C)(=O)=O)c(C3CC3)cc12
- EC50: < 100 nM

SMILES: CNC(=O)c1c(-c2ccc(F)cc2)oc2cc(N(CCOCCOCc3cccc(C(=O)O)c3)S(C)(=O)=O)c(C3CC3)cc12
- EC50: < 100 nM

SMILES: CNC(=O)c1c(-c2ccc(F)cc2)oc2cc(N(CCOCCOCCOCC(=O)NO)S(C)(=O)=O)c(C3CC3)cc12
- EC50: < 100 nM

SMILES: CNC(=O)c1c(-c2ccc(F)cc2)oc2cc(N(CC(=O)NC(C)(C)C(=O)NCc3cccc(C(=O)/C=C(\O)C(=O)O)c3)S(C)(=O)=O)c(C3CC3)cc12
- EC50: 100 to 1000 nM

SMILES: CNC(=O)c1c(-c2ccc(F)cc2)oc2cc(N(CCOCCOCc3ccc(OC)c(C(=O)O)c3)S(C)(=O)=O)c(C3CC3)cc12
- EC50: 100 to 1000 nM

SMILES: CNC(=O)c1c(-c2ccc(F)cc2)oc2cc(N(CCOCCOCCOCCO)S(C)(=O)=O)c(C3CC3)cc12
- EC50: 100 to 1000 nM

SMILES: CNC(=O)c1c(-c2ccc(F)cc2)oc2cc(N(CCOC(=O)CNC(=O)CCCC(=O)O)S(C)(=O)=O)c(C3CC3)cc12
- EC50: 100 to 1000 nM

SMILES: CNC(=O)c1c(-c2ccc(F)cc2)oc2cc(N(CCOCCOCCOC(C)C(=O)O)S(C)(=O)=O)c(C3CC3)cc12 (centres undefined)
- EC50: < 100 nM

SMILES: CNC(=O)c1c(-c2ccc(F)cc2)oc2cc(N(CCOCCOCCOCCOCCOCCOCc3cccc(C(=O)/C=C(\O)C(=O)O)c3)S(C)(=O)=O)c(C3CC3)cc12
- EC50: 100 to 1000 nM

SMILES: CNC(=O)c1c(-c2ccc(F)cc2)oc2cc(N(CC(=O)NCC(=O)NCc3cccc(C(=O)/C=C(\O)C(=O)O)c3)S(C)(=O)=O)c(C3CC3)cc12
- EC50: 100 to 1000 nM

SMILES: CNC(=O)c1c(-c2ccc(F)cc2)oc2cc(N(CC(=O)NC(C)C(=O)NCc3cccc(C(=O)/C=C(\O)C(=O)O)c3)S(C)(=O)=O)c(C3CC3)cc12 (centres undefined)
- EC50: 100 to 1000 nM

SMILES: CNC(=O)c1c(-c2ccc(F)cc2)oc2cc(N(CCOCCOCCOCC(=O)O)S(C)(=O)=O)c(C3CC3)cc12
- EC50: 100 to 1000 nM

SMILES: CNC(=O)c1c(-c2ccc(F)cc2)oc2cc(N(CCOCCOCc3cccc(C(C)=O)c3)S(C)(=O)=O)c(C3CC3)cc12
- EC50: < 100 nM

SMILES: CNC(=O)c1c(-c2ccc(F)cc2)oc2cc(N(CCOCCOCc3ccc(C(=O)/C=C(\O)C(=O)O)cc3)S(C)(=O)=O)c(C3CC3)cc12
- EC50: < 100 nM

SMILES: CNC(=O)c1c(-c2ccc(F)cc2)oc2cc(N(CCOCCOCc3ccccc3C(=O)O)S(C)(=O)=O)c(C3CC3)cc12
- EC50: < 100 nM

SMILES: CNC(=O)c1c(-c2ccc(F)cc2)oc2cc(N(CCOCCOCc3ccc(F)c(C(=O)O)c3)S(C)(=O)=O)c(C3CC3)cc12
- EC50: < 100 nM
